Assay results published in the supplement of paper PMC4862054.

Tests used:
Conditions in all cases: incubation time: 72 h
[1] = system: HDQ-P1; assay: normalised viability (% of control), CellTiter-Blue; higher = more viable cells (about 100 = DMSO control)
Description: (§1)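 DSRT, CellTiter-Blue viability, 72 h incubation. Signal is normalised to DMSO and benzethonium chloride controls. Value is the normalised response at dose 7.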

[2] = system: CAL-148; assay: as above
Description: as §1

[3] = system: DU-4475; assay: as above
Description: as §1

[4] = system: MDA-MB-453; assay: as above
Description: as §1

[5] = system: CAL-85-1; assay: as above
Description: as §1

[6] = system: CAL-51; assay: as above
Description: as §1

[7] = system: HDQ-P1; assay: as above; remark: listed apart in the source
Description: (§2)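 DSRT, CellTiter-Blue viability, 72 h incubation. Signal is normalised to DMSO and benzethonium chloride controls. Value is the normalised response at dose 9.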

[8] = system: CAL-148; assay: as above; remark: listed apart in the source
Description: as §2

[9] = system: DU-4475; assay: as above; remark: listed apart in the source
Description: as §2

[10] = system: MDA-MB-453; assay: as above; remark: listed apart in the source
Description: as §2

[11] = system: CAL-85-1; assay: as above; remark: listed apart in the source
Description: as §2

[12] = system: CAL-51; assay: as above; remark: listed apart in the source
Description: as §2

[13] = system: MCF-10A; assay: drug sensitivity score (DSS), CellTox Green (DSS (AUC-based score)); higher = stronger drug effect (viability inhibition or cytotoxicity); extreme values may be limits of the assay
Outline: (§3)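 Each compound occupied 5 concentrations in 10-fold steps over its own 10,000-fold range in 384-well plates, into which breast cancer cell lines were seeded as 20 µl suspension. Following 72 h of incubation, CellTox Green fluorescence (485/520 nm) was measured, and CellTiter-Glo luminescence was measured after 10 min at room temperature. Plates were individually normalised to 0.1 % DMSO and a positive kill control. From the area under the fitted dose-response curve, a drug sensitivity score was calculated.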

[14] = system: MDA-MB-453; assay: as above
Outline: as §3

[15] = system: MDA-MB-468; assay: as above
Outline: as §3

| SMILES | normalised viability [1] [%] | normalised viability [2] [%] | normalised viability [3] [%] | normalised viability [4] [%] | normalised viability [5] [%] | normalised viability [6] [%] | normalised viability [7] [%] | normalised viability [8] [%] | normalised viability [9] [%] | normalised viability [10] [%] | normalised viability [11] [%] | normalised viability [12] [%] | drug sensitivity score [13] | drug sensitivity score [14] | drug sensitivity score [15] |
| --- | --- | --- | --- | --- | --- | --- | --- | --- | --- | --- | --- | --- | --- | --- | --- |
| COc1ccc(S(=O)(=O)Nc2cccnc2Nc2ccc(O)cc2)cc1 [ABT-751] (1000 nM) | 51.3 | 52.5 | 66.1 | 25.2 | 32.3 | 39.7 |  |  |  |  |  |  |  |  |  |
| COc1ccc(S(=O)(=O)Nc2cccnc2Nc2ccc(O)cc2)cc1 [ABT-751] (10000 nM) |  |  |  |  |  |  | 32.6 | 12.7 | 6.9 | 20.6 | 23.6 | 6.42 |  |  |  |
| Cc1cc(Nc2nc(N[C@@H](C)c3ncc(F)cn3)ncc2Cl)[nH]n1 [AZD1480] (100 nM) | 98.6 | 105 | 93.2 | 105 | 82.2 | 108 |  |  |  |  |  |  |  |  |  |
| Cc1cc(Nc2nc(N[C@@H](C)c3ncc(F)cn3)ncc2Cl)[nH]n1 [AZD1480] (1000 nM) |  |  |  |  |  |  | 137 | 100 | 74.7 | 56.6 | 88.4 | 86.3 |  |  |  |
| CNC(=O)c1ccccc1Sc1ccc2c(/C=C/c3ccccn3)n[nH]c2c1 [Axitinib] (1000 nM) | 76.8 | 97.5 | 109 | 60.4 | 76.9 | 88.7 |  |  |  |  |  |  |  |  |  |
| CNC(=O)c1ccccc1Sc1ccc2c(/C=C/c3ccccn3)n[nH]c2c1 [Axitinib] (10000 nM) |  |  |  |  |  |  | 67.3 | 42.1 | 21.1 | 46.2 | 67.2 | 37.3 |  |  |  |
| CC(O)(CS(=O)(=O)c1ccc(F)cc1)C(=O)Nc1ccc(C#N)c(C(F)(F)F)c1 (stereo not given) [Bicalutamide] (1000 nM) | 91.4 | 102 | 90.1 | 102 | 91.1 | 108 |  |  |  |  |  |  |  |  |  |
| CC(O)(CS(=O)(=O)c1ccc(F)cc1)C(=O)Nc1ccc(C#N)c(C(F)(F)F)c1 (stereo not given) [Bicalutamide] (10000 nM) |  |  |  |  |  |  | 128 | 107 | 121 | 100 | 102 | 112 |  |  |  |
| CCNC(=O)CCC/C=C\C[C@@H]1[C@@H](/C=C/[C@@H](O)CCc2ccccc2)[C@H](O)C[C@@H]1O [Bimatoprost] |  |  |  |  |  |  |  |  |  |  |  |  | 0 | 0 |  |
| CCNC(=O)CCC/C=C\C[C@@H]1[C@@H](/C=C/[C@@H](O)CCc2ccccc2)[C@H](O)C[C@@H]1O [Bimatoprost] (550 nM) | 93.3 | 95.9 | 104 | 91.1 | 94.2 | 118 |  |  |  |  |  |  |  |  |  |
| CCNC(=O)CCC/C=C\C[C@@H]1[C@@H](/C=C/[C@@H](O)CCc2ccccc2)[C@H](O)C[C@@H]1O [Bimatoprost] (5500 nM) |  |  |  |  |  |  | 115 | 92.2 | 107 | 106 | 92.2 | 114 |  |  |  |
| COc1cc(Nc2c(C#N)cnc3cc(OCCCN4CCN(C)CC4)c(OC)cc23)c(Cl)cc1Cl [Bosutinib] (1000 nM) | 89.2 | 72 | 109 | 80.3 | 81.9 | 109 |  |  |  |  |  |  |  |  |  |
| COc1cc(Nc2c(C#N)cnc3cc(OCCCN4CCN(C)CC4)c(OC)cc23)c(Cl)cc1Cl [Bosutinib] (10000 nM) |  |  |  |  |  |  | 4.45 | 9.6 | 4.38 | 4.44 | 12.4 | 11.1 |  |  |  |
| Cn1cc(C2=C(c3cn(C4CCN(Cc5ccccn5)CC4)c4ccccc34)C(=O)NC2=O)c2ccccc21 [Enzastaurin] (1000 nM) | 81.2 | 73 | 91.7 | 62.8 | 83.7 | 90.4 |  |  |  |  |  |  |  |  |  |
| Cn1cc(C2=C(c3cn(C4CCN(Cc5ccccn5)CC4)c4ccccc34)C(=O)NC2=O)c2ccccc21 [Enzastaurin] (10000 nM) |  |  |  |  |  |  | 78.1 | 67.4 | 86 | 51.9 | 88.4 | 89.8 |  |  |  |
| Cc1nc(C(=O)NCC(=O)O)c(O)c2ccc(Oc3ccccc3)cc12 [FG-4592] |  |  |  |  |  |  |  |  |  |  |  |  | 0 | 0 | 0 |
| CC(C)(C)NC(=O)[C@H]1CC[C@H]2[C@@H]3CC[C@H]4NC(=O)C=C[C@]4(C)[C@H]3CC[C@]12C [Finasteride] (1000 nM) | 118 | 103 | 113 | 106 | 98.4 | 109 |  |  |  |  |  |  |  |  |  |
